Reference: patent US12343335B2, “Pharmaceutical composition for treating multiple sclerosis on basis of AMPK inhibitory function and zinc homeostasis control function” (ZINCURE CORP., priority 2019, dated 2025)

Key:
[1] = system: cortical neurons of the cultured mice; test: Zinc toxicity in cortical neurons, cell viability assay (Cell Counting Kit-8); type: cell-based, mouse; settings: ZnCl2 400 μM for 10 minutes, compound 20 μM
Method: (§1) The mouse cortical neurons used in the present invention were extracted from the brain of a mouse embryo, and cultured in Dulbecco's modified Eagle's medium (DMEM, Gibco, Grand Island, NY, US) supplemented with 5% fetal bovine serum (FBS) and 5% horse serum (HS) under the condition of 95% humidity, 5% CO2 and 37° C. For activation and differentiation of the cells, the cells were grown to a density of 2×10^4 cells in a 24-well tissue culture plate and cultured in MEM medium without FBS and HS before treatment with zinc and compounds.
According to an embodiment of the present invention, based on the structural similarity of 1H10 of the present invention, 25 similar compounds having a similar structure were purchased from a compound library manufacturer (InterBioScreen, Russia; Akos, Germany). Then, in order to induce zinc toxicity in the cortical neurons of the cultured mice, ZnCl2 (400 μM) was treated for 10 minutes, and after 12.5 hours, the selected 25 compounds and the previously selected drug 1H10 were treated (20 μM) and it was determined whether cell death was inhibited through cell viability assay (Cell Counting Kit-8, Dojindo).

mouse cortical neurons [2] = test: Oxidative stress by H2O2 in cortical neurons, LDH analysis; type: cell-based; settings: H2O2 100 μM about 4 hours, compound 20 μM
Method: as §1
(§2) The present inventors investigated the inhibitory effect against oxidative stress in addition to zinc toxicity for the eight drugs and 1H10 of the above examples. Specifically, oxidative damage induced neurotoxicity by treating mouse cortical neurons with H2O2 (100 μM) and FeCl2 (100 μM) for about 4 hours and 20 hours, respectively, and treatment with the 8 selected drugs and 1H10 (20 μM). Thereafter, cytotoxicity was observed through LDH (Lactate Dehydrogenase) analysis.

mouse cortical neurons [3] = test: Excitotoxicity by NMDA in cortical neurons; type: cell-based; settings: NMDA 50 μM for 3 hours
Method: as §1
The present inventors investigated the inhibitory effect against excitotoxicity of the eight drugs and 1H10 of the above examples. Specifically, excitotoxicity was induced by treatment with NMDA (N-methyl-D-aspartate, 50 μM) in mouse cortical neurons for 3 hours.

mouse cortical neurons [4] = test: Apoptosis by etoposide (ETPS) in cortical neurons, LDH cytotoxicity; type: cell-based; settings: etoposide 10 μM for 20 hours, compound 20 μM
Method: as §1
The present inventors investigated the inhibitory effect against neuronal cell death of the eight drugs and 1H10 of the above examples. Specifically, neurotoxicity due to apoptosis was induced by treatment with etoposide (ETPS, 10 μM) in mouse cortical neurons for 20 hours. Then, the selected 8 drugs and 1H10 were treated (20 μM) and LDH cytotoxicity was observed.

[5] = system: mouse cortical neuron culture; test: Intrinsic toxicity in cortical neuron culture, LDH cytotoxicity; type: cell-based; settings: 40 μM; for intrinsic toxicity in words: 48 hours of drug treatment
Method: as §1
Specifically, 40 μM of each of the drugs was treated in a mouse cortical neuron culture, and LDH cytotoxicity was observed after 24 or 48 hours.

mouse cortical neurons [6] = test: Oxidative damage by iron (FeCl2) in cortical neurons, LDH analysis; type: cell-based; settings: FeCl2 100 μM about 20 hours, compound 20 μM
Method: as §1, §2

[7] = Zinc chelation in a test tube with FluoZin-3; type: binding; settings: 1 μM zinc, 5 μM FluoZin-3, compared with 1H10
Method: The present inventors treated FluoZin-3, a substance illuminate fluorescence if it bind to free zinc to cultivated neurons in order to verify the possibility of zinc chelation according to the treatment of 1H10 {(Z)-5-((1H-indol-3-yl)methylene)-2-((3-hydroxyphenyl)amino)thiazol-4(5H)-one} according to an embodiment of the present invention, and then measured cytosolic zinc level in the neurons for 60 min after exposing zinc (300 μM) for 15 minutes and removing the zinc. In addition, 20 μM zinc (ZnCl2) and NewPort Green DCF fluorophore, which emits fluorescence when it bind to zinc, were added to the test tube, and 1H10 of the present invention was treated at various concentrations. Clioquinol, a zinc chelator, and calcium ionophore Phosphorus ionomycin was used as controls.
In addition, after reacting various concentrations of (0, 0.5, 1, 2, 5, 10, 20, 40 μM) 1H10 or clioquinol with 1 μM zinc and 5 μM fluorescent labeled drug for free zinc (FluoZin-3) in a test tube and fluorescence values were measured. […] 1H10 of the present invention binds zinc even at a lower concentration than clioquinol, but at a high concentration, zinc binding strength is considered to be lower than that of clioquinol (FIG. 5B).

EAE = settings: zinc chelator administrated to EAE animals; cited from earlier work

| SMILES | neuroprotective effect against zinc toxicity (cell viability) [1] | inhibition of H2O2 toxicity (LDH) (mouse cortical neurons [2]) | inhibition of excitotoxicity caused by NMDA (mouse cortical neurons [3]) | inhibitory effect against ETPS toxicity (LDH) (mouse cortical neurons [4]) | intrinsic toxicity in words [5] | intrinsic toxicity compared with 1H10 ([5]; 24 or 48 hours (time not specified)) | inhibition of oxidative damage caused by iron (LDH) (mouse cortical neurons [6]) | final FluoZin-3 fluorescence value [7] | T cell infiltration that cause encephalitis (EAE) | demyelination and microglia activity in EAE (EAE) |
| --- | --- | --- | --- | --- | --- | --- | --- | --- | --- | --- |
| Cc1ccc(NC2=NC(=O)/C(=C/c3c[nH]c4ccccc34)S2)cc1C [4B01, (5Z)-2-[(3,4-Dimethylphenyl)amino]-5-(1H-indol-3-ylmethylene)-1,3-thiazol-4(5H)-one] | neuroprotective effect | significantly inhibit | significantly inhibited | significant inhibitory effect | stronger intrinsic toxicity than 1H10 | – | – | – | – | – |
| Cc1cccc(NC2=NC(=O)/C(=C/c3c[nH]c4ccccc34)S2)c1C [4B04, (5Z)-2-[(2,3-Dimethylphenyl)amino]-5-(1H-indol-3-ylmethylene)-1,3-thiazol-4(5H)-one] | neuroprotective effect | significantly inhibit | – | – | – | – | – | – | – | – |
| CCCCc1ccc(NC2=NC(=O)/C(=C/c3c[nH]c4ccccc34)S2)cc1 [4C01, (Z)-5-((1H-indol-3-yl)methylene)-2-((4-butylphenyl)amino)thiazol-4(5H)-one] | neuroprotective effect | significantly inhibit | significantly inhibited | significant inhibitory effect | – | insignificant difference from 1H10 | – | – | – | – |
| Cc1ccc(/N=C2\NC(=O)/C(=C/c3c(C)[nH]c4ccccc34)S2)cc1 [4C03, (2E,5Z)-5-((2-methyl-1H-indol-3-yl)methylene)-2-(p-tolylimino)thiazolidin-4-one] | neuroprotective effect | significantly inhibit | significantly inhibited | – | – | – | – | – | – | – |
| Cc1ccc(/N=C2/NC(=O)/C(=C\c3c(C)[nH]c4ccccc34)S2)cc1 [4C04, (2Z,5E)-5-((2-methyl-1H-indol-3-yl)methylene)-2-(p-tolylimino)thiazolidin-4-one] | neuroprotective effect | significantly inhibit | significantly inhibited | – | – | – | – | – | – | – |
| O=C1N=C(Nc2ccccc2C(=O)O)S/C1=C/c1c[nH]c2ccccc12 [4C06, (E)-2-((5-((1H-indol-3-yl)methylene)-4-oxo-4,5-dihydrothiazol-2-yl)amino)benzoic acid] | neuroprotective effect | – | – | significant inhibitory effect | – | – | – | – | – | – |
| O=C1N=C(Nc2ccc(O)c(C(=O)O)c2)S/C1=C\c1c[nH]c2ccccc12 [4C08, (Z)-5-((5-((1H-indol-3-yl)methylene)-4-oxo-4,5-dihydrothiazol-2-yl)amino)-2-hydroxy benzoic acid] | neuroprotective effect | – | significantly inhibited | significant inhibitory effect | did not show intrinsic toxicity | – | inhibited | – | – | – |
| Oc1c(I)cc(Cl)c2cccnc12 [clioquinol] | – | – | – | – | – | – | – | lower | inhibitored | reduced |
